Laboratory results: ChEMBL document CHEMBL1142880, “Synthesis and anti-HIV activity evaluation of 1-[(alkenyl or alkynyl or alkyloxy)methyl]-5-alkyl-6-(1-naphthoyl)-2,4-pyrimidinediones as novel non-nucleoside HIV-1 reverse transcriptase inhibitors” (Eur J Med Chem, 2007)

Assays:
[1] = Cytotoxicity against MT4 cells after 4 days by MTT method; format: cell-based; conditions: human
[2] = Selectivity index, ratio of CC50 for MT4 cells to IC50 for HIV1 3B; format: functional
[3] = tested on: Human immunodeficiency virus 1; experiment: Antiviral activity against HIV1 3B in MT4 cells after 4 days by MTT method; format: functional, organism-based; conditions: Human immunodeficiency virus 1, 3B, MT4, 96 h
[4] = tested on: Human immunodeficiency virus 2; experiment: Antiviral activity against HIV2 ROD in MT4 cells after 4 days by MTT method; format: functional, organism-based; conditions: Human immunodeficiency virus 2, ROD, MT4, 96 h

| SMILES | CC50 at 96 h [1] [µM] | Ratio CC50/IC50 [2] | IC50 [3] [µM] | IC50 [4] [µM] |
| --- | --- | --- | --- | --- |
| CCc1c(C(=O)c2cccc3ccccc23)n(COCC=C(C)C)c(=O)[nH]c1=O | 36.4 | 5 | 6.89 | > 36.4 |
| CC(C)c1c(C(=O)c2cccc3ccccc23)n(COCc2ccccc2)c(=O)[nH]c1=O | 26.9 | 233 | 0.11 | > 26.9 |
| CC(C)=CCn1c(C(=O)c2cccc3ccccc23)c(C)c(=O)[nH]c1=O | 44.6 | <1 | > 44.6 | > 131 |
| CC(=O)OC/C=C(\C)Cn1c(C(=O)c2cccc3ccccc23)c(C)c(=O)[nH]c1=O | 200 | 5 | 41.4 | > 200 |
| CCOCn1c(C(=O)c2cccc3ccccc23)c(C)c(=O)[nH]c1=O | 51.7 | 13 | 4.02 | > 51.7 |
| Cc1c(C(=O)c2cccc3ccccc23)n(COCc2ccccc2)c(=O)[nH]c1=O | 45.6 | 29 | 1.6 | > 45.6 |
| C=CCOCn1c(C(=O)c2cccc3ccccc23)c(C)c(=O)[nH]c1=O | 131 | 62 | 2.11 | > 131 |
| CCc1c(C(=O)c2cccc3ccccc23)n(C/C=C/C(=O)OC)c(=O)[nH]c1=O | 38.6 | 54 | 0.71 | > 38.6 |
| CCc1c(C(=O)c2cccc3ccccc23)n(CC2CC=CC2)c(=O)[nH]c1=O | 18.6 | 84 | 0.22 | > 18.6 |
| CCOCn1c(C(=O)c2cccc3ccccc23)c(CC)c(=O)[nH]c1=O | 23 | 78 | 0.28 | > 23 |
| CCc1c(C(=O)c2cccc3ccccc23)n(COCc2ccc([N+](=O)[O-])cc2)c(=O)[nH]c1=O | 30.5 | 55 | 0.54 | > 30.5 |
| C=CCOCn1c(C(=O)c2cccc3ccccc23)c(CC)c(=O)[nH]c1=O | 45.6 | 243 | 0.19 | > 45.6 |
| CCc1c(C(=O)c2cccc3ccccc23)n(CC#Cc2ccccc2)c(=O)[nH]c1=O | 17 | 83 | 0.21 | > 17 |
| CCc1c(C(=O)c2cccc3ccccc23)n(COCC2CC2)c(=O)[nH]c1=O | 45.3 | 48 | 0.93 | > 45.3 |
| Cc1c(C(=O)c2cccc3ccccc23)n(CC#Cc2ccccc2)c(=O)[nH]c1=O | 29.9 | 11 | 2.79 | > 29.9 |
| CC(C)=CCn1c(C(=O)c2cccc3ccccc23)c(C(C)C)c(=O)[nH]c1=O | 30.8 | 13 | 2.42 | > 30.8 |
| Cc1c(C(=O)c2cccc3ccccc23)n(COCC2CC2)c(=O)[nH]c1=O | 77.6 | 10 | 7.69 | > 77.6 |
| CCc1c(C(=O)c2cccc3ccccc23)n(COCc2ccccc2)c(=O)[nH]c1=O | 38.6 | 257 | 0.15 | > 38.6 |
| O=c1[nH]cnc2c1ncn2[C@H]1CC[C@@H](CO)O1 [DIDANOSINE] | ≥ 529 | >=98 | – | – |
| Cc1c(Sc2ccccc2)n(COCCO)c(=O)[nH]c1=O [HEPT] | 405 | 80 | – | > 406 |
